Results taken from patent US20240336594A1, “SIX-MEMBERED ARYL OR HETEROARYL AMIDES, AND COMPOSITION AND USE THEREOF” (BETTA PHARMACEUTICALS CO., LTD, priority 2021, published 2024).

Target: T1, MALT1 (Homo sapiens, UniProt Q9UDY8)
T1 sequence (Q9UDY8 1-824): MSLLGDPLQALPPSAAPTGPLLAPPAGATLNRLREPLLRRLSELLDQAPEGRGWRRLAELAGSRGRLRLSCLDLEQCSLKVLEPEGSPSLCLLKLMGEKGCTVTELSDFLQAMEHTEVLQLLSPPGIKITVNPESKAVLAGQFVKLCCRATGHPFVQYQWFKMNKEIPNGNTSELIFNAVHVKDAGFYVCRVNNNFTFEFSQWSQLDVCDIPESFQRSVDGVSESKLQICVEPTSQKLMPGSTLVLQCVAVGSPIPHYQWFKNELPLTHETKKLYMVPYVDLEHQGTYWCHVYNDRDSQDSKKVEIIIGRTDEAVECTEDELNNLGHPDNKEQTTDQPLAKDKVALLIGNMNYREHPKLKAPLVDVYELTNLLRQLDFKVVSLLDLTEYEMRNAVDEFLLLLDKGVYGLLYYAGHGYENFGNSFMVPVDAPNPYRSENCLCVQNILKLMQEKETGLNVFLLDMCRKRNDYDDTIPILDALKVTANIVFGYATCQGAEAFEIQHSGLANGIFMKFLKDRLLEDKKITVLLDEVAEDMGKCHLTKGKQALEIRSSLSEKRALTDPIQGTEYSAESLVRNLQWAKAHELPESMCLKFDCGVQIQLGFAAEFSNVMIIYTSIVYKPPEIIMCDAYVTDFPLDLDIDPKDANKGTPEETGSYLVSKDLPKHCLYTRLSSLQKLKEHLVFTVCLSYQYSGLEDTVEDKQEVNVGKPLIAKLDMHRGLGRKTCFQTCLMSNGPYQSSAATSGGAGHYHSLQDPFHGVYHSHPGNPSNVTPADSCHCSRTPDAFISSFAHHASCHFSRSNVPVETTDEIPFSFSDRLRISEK
Assay: MALT1 protease inhibition assay (AMC-labeled peptide, fluorescence 360/460)
Type: biochemical
Details: substrate Ac-LRSR-AMC, 15 min preincubation, 90 min at 25° C.
Description: Test compounds of the present invention (in 100% DMSO) were spotted into a 384-well dilution plate and serially diluted to the required concentrations with DMSO. Then, 0.2 μL of the test compounds were transferred into a new 384-well reaction plate by Echo following centrifugation. The MALT enzyme and its substrate, AMC-labeled peptide, were prepared in 1× protease buffer to yield 2× enzyme solution and 2× peptide solution. Subsequently, 10 μL of 2× enzyme solution was added into the 384-well reaction plate, incubating with the test compounds for 15 minutes at 25° C. After that, 10 μL of 2× peptide solution was added into the plate, continuing to incubate for 90 minutes at 25° C. The plate was then placed on an Envision multifunctional microplate reader to collect raw data, which would be converted into inhibition rate:
Inhibition rate %=(max−sample)/(max−min)*100%. • “max” values were measured using the reaction with enzyme but no compound treated, while “min” values were generated from control wells containing assay buffer without enzyme.
Curve fitting was done with Graphpad Prism software to determine the IC50 values. The specific experimental operations are as follows:
58.82 g Na Citrate·2H2O powder was added into 140 mL ddH2O and mixed in a 37° C. water bath. Once there were no visible particles, the remaining solutions were added successively with continuous stirring for 10 minutes. The final volume was adjusted to 200 mL. The buffer was stored at room temperature. DTT was added before use.
• 1) All test compounds were diluted from 10 mM stock solution into 1 mM in a 384 well dilution plate (labcyte, PP-0200); • 2) Ten various concentrations of the diluted compound solution above were obtained by serial dilution at an equal ratio of 1:3; • 3) 0.2 μL DMSO was transferred to two empty wells of the 384 reaction plate as blank controls without compound and enzyme respectively; • 4) 0.2 μL of the test compound at different concentrations was also transferred into the 384 reaction plate by Echo, with two duplicate wells for each concentration, then the plate was centrifuged at 1000 rpm for 1 min.
• 1) The MALT1 protease and AMC-labeled peptide was prepared in 1× protease buffer to obtain 2× enzyme solution and 2× peptide solution. 10 μL of 2× enzyme solution was added into the 384-well reaction plate. The plate was centrifuged at 1000 rpm for 1 min and incubated for 15 min at 25° C. • 2) 10 μL of 2× peptide solution was then transferred to the 384 reaction plate, and the plate was centrifuged at 1000 rpm for 1 min and incubate for 90 min at 25° C.

| IC50 [µM] | Molecule |
| --- | --- |
| ≤ 0.01 | C#Cc1cc(F)cnc1-c1cc(Cl)c(C(=O)Nc2ccnc(C(F)(F)F)c2)cc1F [Example A324, 2-chloro-4-(3-ethyny1-5-fluoropyridin-2-y1)-5-fluoro-N-(2-(trifluoromethyl)pyridin-4-yl)benzamide] |
| ≤ 0.01 | C#Cc1cnccc1-c1c(F)c(F)c(C(=O)Nc2cnc(-n3nccn3)c(Cl)c2)c(F)c1F [Example A333, N-(5-chloro-6-(2H-1,2,3-triazol-2-yl)pyridin-3-y1)-4-(3-ethynylpyridin-4-y1)-2,3,5,6-tetrafluorobenzamide] |
| ≤ 0.01 | C#Cc1cc(F)cnc1-c1cc(Cl)c(C(=O)Nc2cnc(-n3nccn3)c(Cl)c2)cc1F [Example A335, 2-chloro-N-(5-chloro-6-(2H-1,2,3-triazol-2-yl)pyridin-3-y1)-4-(3-ethyny1-5-fluoropyridin-2-y1)-5-fluorobenzamide] |
| ≤ 0.01 | C#Cc1cnccc1-c1cc(Cl)c(C(=O)Nc2ccc(OC)c(Cl)c2)cc1F [Example A338, 2-chloro-N-(3-chloro-4-methoxyphenyl)-4-(3-ethynylpyridin-4-y1)-5-fluorobenzamide] |
| ≤ 0.01 | C=CC(=O)Nc1cnccc1-c1cc(Cl)c(C(=O)Nc2cnc(-n3nccn3)c(Cl)c2)cc1F [Example A342, 4-(3-acrylamidopyridin-4-y1)-2-chloro-N-(5-chloro-6-(2H-1,2,3-triazol-2-y1)pyridin-3-y1)-5-fluorobenzamide] |
| ≤ 0.01 | C=Cc1cnccc1-c1cc(Cl)c(C(=O)Nc2cnc(-n3nccn3)c(C(F)(F)F)c2)cc1F [Example A346, N-(6-(2H-1,2,3-triazol-2-yl)-5-(trifluoromethyl)pyridin-3-yl)-2-chloro-5-fluoro-4-(3-vinylpyridin-4-y1)benzamide] |
| ≤ 0.01 | C#Cc1cc(C(=O)Nc2cnc(-n3nccn3)c(Cl)c2)c(C)cc1-c1ccc(F)cc1N [Example A409] |
| ≤ 0.01 | C#Cc1cccc(Cl)c1-c1cc(Cl)c(C(=O)Nc2cnc(-n3nccn3)c(C(F)(F)F)c2)cc1F [Example A413] |
| 0.01 to 0.1 | C#Cc1cc(C(=O)Nc2cnc(-n3nccn3)c(Cl)c2)c(C)cc1-c1ccc(F)cc1Cl [Example A414, 2′-chloro-N-(5-chloro-6-(2H-1,2,3-triazol-2-yl)pyridin-3-yl)-2-ethynyl-4′-fluoro-5-methyl-[1,1′-biphenyl]-4-carboxamide] |
| 0.01 to 0.1 | C#Cc1cc(F)ccc1-c1cc(C)c(C(=O)Nc2cnc(-n3nccn3)c(Cl)c2)cc1C#C [Example A415] |
| 0.1 to 0.5 | C#Cc1cc(C(=O)Nc2cnc(-n3nccn3)c(Cl)c2)c(C)cc1-c1ccc(F)nc1N [Example A416, 4-(2-amino-6-fluoropyridin-3-yl)-N-(5-chloro-6-(2H-1,2,3-triazol-2-yl)pyridin-3-yl)-5-ethynyl-2-methylbenzamide] |
| 0.01 to 0.1 | C#Cc1cc(C(=O)Nc2cnc(-n3nccn3)c(Cl)c2)c(C)cc1-c1ccncc1OC [Example A417, N-(5-chloro-6-(2H-1,2,3-triazol-2-yl)pyridin-3-yl)-5-ethynyl-4-(3-methoxypyridin-4-yl)-2-methylbenzamide] |
| > 0.5 | Nc1cc(F)ccc1-c1cc(Cl)c(C(=O)Nc2cnc(-n3nccn3)c(Cl)c2)cc1C1=CCCCC1 [Example A418, 2-amino-5′-chloro-N-(5-chloro-6-(2H-1,2,3-triazol-2-yl)pyridin-3-yl)-4-fluoro-2″,3″,4″,5″-tetrahydro-[1,1′:2′,1″-terphenyl]-4′-carboxamide] |
| > 0.5 | Cc1cc(-c2ccc(F)cc2Cl)c(-c2ccccc2)cc1C(=O)Nc1cnc(-n2nccn2)c(Cl)c1 [Example A419, 2-chloro-N-(5-chloro-6-(2H-1,2,3-triazol-2-yl)pyridin-3-yl)-4-fluoro-5′-methyl-[1,1′:2′,1″-terphenyl]-4′-carboxamide] |
| > 0.5 | Cc1cc(-c2ccc(F)cc2N)c(C2=CCCC2)cc1C(=O)Nc1cnc(-n2nccn2)c(Cl)c1 [Example A420, 2′-amino-N-(5-chloro-6-(2H-1,2,3-triazol-2-yl)pyridin-3-yl)-2-(cyclopent-1-en-1-yl)-4′-fluoro-5-methyl-[1,1′-biphenyl]-4-carboxamide] |
| > 0.5 | Cc1cc(-c2ccc(F)cc2N)c(-c2ccccc2)cc1C(=O)Nc1cnc(-n2nccn2)c(Cl)c1 [Example A421, 2-amino-N-(5-chloro-6-(2H-1,2,3-triazol-2-yl)pyridin-3-yl)-4-fluoro-5′-methyl-[1,1′:2′,1″-terphenyl]-4′-carboxamide] |
| > 0.5 | C#Cc1cc(F)ccc1-c1cc(C)c(C(=O)Nc2cnc(-n3nccn3)c(Cl)c2)cc1-c1ccccc1 [Example A422, N-(5-chloro-6-(2H-1,2,3-triazol-2-yl)pyridin-3-yl)-2-ethynyl-4-fluoro-5′-methyl-[1,1′:2′,1″-terphenyl]-4′-carboxamide] |
| 0.01 to 0.1 | CC#Cc1cc(C(=O)Nc2cnc(-n3nccn3)c(Cl)c2)c(C)cc1-c1ccc(F)cc1N [Example A423] |
| 0.01 to 0.1 | C=Cc1cc(C(=O)Nc2cnc(-n3nccn3)c(Cl)c2)c(Cl)cc1-c1ccc(F)cc1N [Example A424, 2′-amino-5-chloro-N-(5-chloro-6-(2H-1,2,3-triazol-2-yl)pyridin-3-yl)-4′-fluoro-2-vinyl-[1,1′-biphenyl]-4-carboxamide] |
| 0.01 to 0.1 | C=Cc1cc(C(=O)Nc2cnc(-n3nccn3)c(Cl)c2)c(C)cc1-c1ccc(F)cc1N [Example A425] |
| ≤ 0.01 | C#Cc1cnccc1-c1cc(Cl)c(C(=O)Nc2cnc(C(=O)NCCC)c(Cl)c2)cc1F [Example A430, 3-chloro-5-(2-chloro-4-(3-ethynylpyridin-4-yl)-5-fluorobenzamido)-N-propylpicolinamide] |
| 0.01 to 0.1 | C#Cc1cnccc1-c1cc(Cl)c(C(=O)Nc2cnc(C(=O)NCCOC(F)(F)F)c(Cl)c2)cc1F [Example A431, 3-chloro-5-(2-chloro-4-(3-ethynylpyridin-4-yl)-5-fluorobenzamido)-N-(2-(trifluoromethoxy)ethyl) picolinamide] |
| 0.01 to 0.1 | C#Cc1cnccc1-c1cc(Cl)c(C(=O)Nc2cnc(C(=O)NCCc3ccccc3)c(Cl)c2)cc1F [Example A432, 3-chloro-5-(2-chloro-4-(3-ethynylpyridin-4-yl)-5-fluorobenzamido)-N-phenethylpicolinamide] |
| 0.01 to 0.1 | C#Cc1cnccc1-c1cc(Cl)c(C(=O)Nc2cnc(C(=O)NCc3ccoc3)c(Cl)c2)cc1F [Example A433, 3 3-chloro-5-(2-chloro-4-(3-ethynylpyridin-4-yl)-5-fluorobenzamido)-N-(furan-3-ylmethyl)picolinamide] |
| 0.01 to 0.1 | C#Cc1cnccc1-c1cc(Cl)c(C(=O)Nc2cnc(C(=O)NCC(C)(C)C)c(Cl)c2)cc1F [Example A434, 3-chloro-5-(2-chloro-4-(3-ethynylpyridin-4-yl)-5-fluorobenzamido)-N-neopentylpicolinamide] |
| 0.01 to 0.1 | C#Cc1cnccc1-c1cc(Cl)c(C(=O)Nc2cnc(C(=O)NCC(=O)N(CC)CC)c(Cl)c2)cc1F [Example A435, 3-chloro-5-(2-chloro-4-(3-ethynylpyridin-4-yl)-5-fluorobenzamido)-N-(2-(diethylamino)-2-oxoethyl)picolinamide] |

| Molecule | IC50 [µM] |
| --- | --- |
| 5-(2′-amino-5-chloro-2,4′- difluoro-[1,1′-biphenyl]-4- carboxamido)-3-chloro-N- (2,2-difluoro-2λ3- ethyl)picolinamide [Example A457] | 0.01 to 0.1 |
